# Test results reported in ChEMBL document CHEMBL3804797, “Discovery of Aryl Sulfonamides as Isoform-Selective Inhibitors of NaV1.7 with Efficacy in Rodent Pain Models” (ACS Med Chem Lett, 2016).
# Assays:
# [1] = target: Sodium channel protein type 5 subunit alpha (Homo sapiens, UniProt Q14524); experiment: Inhibition of full length human Nav1.5 channel expressed in HEK cells co-expressing human sodium channel subunit beta1 at holding potential -60 mV by automated voltage clamp analysis; assay type: cell-based, HEK293
# Sequence of Sodium channel protein type 5 subunit alpha (Q14524 whole entry): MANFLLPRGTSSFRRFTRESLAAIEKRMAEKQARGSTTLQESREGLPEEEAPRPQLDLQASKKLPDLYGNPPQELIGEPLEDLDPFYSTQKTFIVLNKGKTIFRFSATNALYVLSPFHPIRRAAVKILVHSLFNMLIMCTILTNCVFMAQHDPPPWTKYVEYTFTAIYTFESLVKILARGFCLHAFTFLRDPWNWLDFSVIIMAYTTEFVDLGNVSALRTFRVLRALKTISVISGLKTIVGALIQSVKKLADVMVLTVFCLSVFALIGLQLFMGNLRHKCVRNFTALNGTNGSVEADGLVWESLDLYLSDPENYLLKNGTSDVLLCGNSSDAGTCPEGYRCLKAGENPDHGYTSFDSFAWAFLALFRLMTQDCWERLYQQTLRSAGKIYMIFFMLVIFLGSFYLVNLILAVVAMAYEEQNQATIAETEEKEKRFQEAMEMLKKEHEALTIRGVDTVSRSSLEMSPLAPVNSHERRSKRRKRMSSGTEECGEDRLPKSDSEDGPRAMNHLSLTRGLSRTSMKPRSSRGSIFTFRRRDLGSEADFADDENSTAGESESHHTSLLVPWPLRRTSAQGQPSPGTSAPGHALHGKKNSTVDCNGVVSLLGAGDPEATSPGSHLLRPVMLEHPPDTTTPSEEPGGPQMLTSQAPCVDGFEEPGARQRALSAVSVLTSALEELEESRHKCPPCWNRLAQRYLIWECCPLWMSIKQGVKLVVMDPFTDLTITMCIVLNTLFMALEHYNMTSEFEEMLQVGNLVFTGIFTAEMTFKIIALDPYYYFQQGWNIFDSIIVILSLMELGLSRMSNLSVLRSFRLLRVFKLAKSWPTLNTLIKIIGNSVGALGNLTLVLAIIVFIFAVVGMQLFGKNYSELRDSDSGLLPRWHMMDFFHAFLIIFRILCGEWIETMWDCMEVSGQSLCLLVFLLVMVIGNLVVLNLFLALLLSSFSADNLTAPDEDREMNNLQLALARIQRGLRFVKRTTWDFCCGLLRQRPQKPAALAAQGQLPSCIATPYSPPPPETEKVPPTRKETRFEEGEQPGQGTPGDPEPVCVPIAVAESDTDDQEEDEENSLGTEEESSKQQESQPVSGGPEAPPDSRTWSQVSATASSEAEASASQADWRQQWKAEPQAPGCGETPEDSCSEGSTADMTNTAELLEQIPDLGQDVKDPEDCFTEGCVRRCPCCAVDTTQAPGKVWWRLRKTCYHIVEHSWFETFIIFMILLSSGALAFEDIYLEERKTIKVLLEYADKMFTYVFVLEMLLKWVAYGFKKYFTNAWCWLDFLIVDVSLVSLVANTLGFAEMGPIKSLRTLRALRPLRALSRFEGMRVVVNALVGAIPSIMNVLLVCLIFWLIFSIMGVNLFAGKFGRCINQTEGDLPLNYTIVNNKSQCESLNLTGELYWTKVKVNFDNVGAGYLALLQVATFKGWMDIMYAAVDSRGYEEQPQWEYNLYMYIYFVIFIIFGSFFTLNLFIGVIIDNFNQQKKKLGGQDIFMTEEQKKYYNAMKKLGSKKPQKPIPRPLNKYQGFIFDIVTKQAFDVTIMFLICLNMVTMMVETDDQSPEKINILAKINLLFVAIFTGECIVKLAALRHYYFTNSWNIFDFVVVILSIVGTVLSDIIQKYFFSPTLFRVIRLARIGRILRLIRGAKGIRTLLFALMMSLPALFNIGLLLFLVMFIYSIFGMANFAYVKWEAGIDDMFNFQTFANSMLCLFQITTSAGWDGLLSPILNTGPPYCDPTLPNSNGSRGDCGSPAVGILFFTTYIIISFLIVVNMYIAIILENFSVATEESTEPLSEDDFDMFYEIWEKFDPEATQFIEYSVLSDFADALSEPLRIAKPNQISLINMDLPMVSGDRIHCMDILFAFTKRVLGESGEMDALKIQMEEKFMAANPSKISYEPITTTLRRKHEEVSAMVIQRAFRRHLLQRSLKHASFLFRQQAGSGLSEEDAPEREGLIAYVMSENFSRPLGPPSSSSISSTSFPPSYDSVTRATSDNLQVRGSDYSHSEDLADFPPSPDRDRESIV
# hERG (KCNH2) = hERG (KCNH2) (Homo sapiens, UniProt Q12809); experiment: Displacement of [3H] astemizole from human ERG channel at 5 uM; details: probe [3H] astemizole
# Sequence of hERG (KCNH2) (Q12809 whole entry): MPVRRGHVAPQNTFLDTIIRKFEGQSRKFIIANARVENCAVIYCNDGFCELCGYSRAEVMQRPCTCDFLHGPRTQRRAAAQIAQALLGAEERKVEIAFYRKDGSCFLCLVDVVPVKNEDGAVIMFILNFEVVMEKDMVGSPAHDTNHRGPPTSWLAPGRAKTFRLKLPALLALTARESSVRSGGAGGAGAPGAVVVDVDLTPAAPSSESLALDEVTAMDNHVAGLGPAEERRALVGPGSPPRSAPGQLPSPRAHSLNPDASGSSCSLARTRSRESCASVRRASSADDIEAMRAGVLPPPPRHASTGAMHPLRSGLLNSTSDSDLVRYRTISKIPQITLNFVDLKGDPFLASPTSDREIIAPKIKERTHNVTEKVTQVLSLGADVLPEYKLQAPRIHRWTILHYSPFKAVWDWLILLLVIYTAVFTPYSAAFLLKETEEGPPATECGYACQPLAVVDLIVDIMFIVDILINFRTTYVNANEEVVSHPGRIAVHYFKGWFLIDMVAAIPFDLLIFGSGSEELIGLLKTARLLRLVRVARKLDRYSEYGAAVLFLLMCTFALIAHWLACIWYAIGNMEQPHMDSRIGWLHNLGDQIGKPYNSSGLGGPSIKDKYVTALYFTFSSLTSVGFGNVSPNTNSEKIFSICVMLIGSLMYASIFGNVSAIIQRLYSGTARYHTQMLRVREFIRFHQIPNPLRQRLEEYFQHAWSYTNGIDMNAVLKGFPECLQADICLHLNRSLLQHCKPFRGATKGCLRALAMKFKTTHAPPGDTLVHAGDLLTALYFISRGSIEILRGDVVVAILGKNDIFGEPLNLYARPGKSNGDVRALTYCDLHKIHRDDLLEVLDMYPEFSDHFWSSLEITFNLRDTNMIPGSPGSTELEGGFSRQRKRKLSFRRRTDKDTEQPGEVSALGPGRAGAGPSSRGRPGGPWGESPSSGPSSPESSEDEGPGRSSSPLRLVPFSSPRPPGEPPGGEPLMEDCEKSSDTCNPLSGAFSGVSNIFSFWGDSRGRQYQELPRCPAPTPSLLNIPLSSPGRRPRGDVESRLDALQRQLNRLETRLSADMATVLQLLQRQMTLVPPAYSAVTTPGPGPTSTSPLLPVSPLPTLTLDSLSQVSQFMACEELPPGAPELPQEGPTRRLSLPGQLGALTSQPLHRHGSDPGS
# [2] = target: T1, Sodium channel protein type 9 subunit alpha (Homo sapiens, UniProt Q15858); experiment: Inhibition of full length human Nav1.7 channel expressed in HEK cells co-expressing human sodium channel subunit beta1 at holding potential -60 mV by automated voltage clamp analysis; assay type: cell-based, HEK293
# T1 sequence (Q15858 whole entry): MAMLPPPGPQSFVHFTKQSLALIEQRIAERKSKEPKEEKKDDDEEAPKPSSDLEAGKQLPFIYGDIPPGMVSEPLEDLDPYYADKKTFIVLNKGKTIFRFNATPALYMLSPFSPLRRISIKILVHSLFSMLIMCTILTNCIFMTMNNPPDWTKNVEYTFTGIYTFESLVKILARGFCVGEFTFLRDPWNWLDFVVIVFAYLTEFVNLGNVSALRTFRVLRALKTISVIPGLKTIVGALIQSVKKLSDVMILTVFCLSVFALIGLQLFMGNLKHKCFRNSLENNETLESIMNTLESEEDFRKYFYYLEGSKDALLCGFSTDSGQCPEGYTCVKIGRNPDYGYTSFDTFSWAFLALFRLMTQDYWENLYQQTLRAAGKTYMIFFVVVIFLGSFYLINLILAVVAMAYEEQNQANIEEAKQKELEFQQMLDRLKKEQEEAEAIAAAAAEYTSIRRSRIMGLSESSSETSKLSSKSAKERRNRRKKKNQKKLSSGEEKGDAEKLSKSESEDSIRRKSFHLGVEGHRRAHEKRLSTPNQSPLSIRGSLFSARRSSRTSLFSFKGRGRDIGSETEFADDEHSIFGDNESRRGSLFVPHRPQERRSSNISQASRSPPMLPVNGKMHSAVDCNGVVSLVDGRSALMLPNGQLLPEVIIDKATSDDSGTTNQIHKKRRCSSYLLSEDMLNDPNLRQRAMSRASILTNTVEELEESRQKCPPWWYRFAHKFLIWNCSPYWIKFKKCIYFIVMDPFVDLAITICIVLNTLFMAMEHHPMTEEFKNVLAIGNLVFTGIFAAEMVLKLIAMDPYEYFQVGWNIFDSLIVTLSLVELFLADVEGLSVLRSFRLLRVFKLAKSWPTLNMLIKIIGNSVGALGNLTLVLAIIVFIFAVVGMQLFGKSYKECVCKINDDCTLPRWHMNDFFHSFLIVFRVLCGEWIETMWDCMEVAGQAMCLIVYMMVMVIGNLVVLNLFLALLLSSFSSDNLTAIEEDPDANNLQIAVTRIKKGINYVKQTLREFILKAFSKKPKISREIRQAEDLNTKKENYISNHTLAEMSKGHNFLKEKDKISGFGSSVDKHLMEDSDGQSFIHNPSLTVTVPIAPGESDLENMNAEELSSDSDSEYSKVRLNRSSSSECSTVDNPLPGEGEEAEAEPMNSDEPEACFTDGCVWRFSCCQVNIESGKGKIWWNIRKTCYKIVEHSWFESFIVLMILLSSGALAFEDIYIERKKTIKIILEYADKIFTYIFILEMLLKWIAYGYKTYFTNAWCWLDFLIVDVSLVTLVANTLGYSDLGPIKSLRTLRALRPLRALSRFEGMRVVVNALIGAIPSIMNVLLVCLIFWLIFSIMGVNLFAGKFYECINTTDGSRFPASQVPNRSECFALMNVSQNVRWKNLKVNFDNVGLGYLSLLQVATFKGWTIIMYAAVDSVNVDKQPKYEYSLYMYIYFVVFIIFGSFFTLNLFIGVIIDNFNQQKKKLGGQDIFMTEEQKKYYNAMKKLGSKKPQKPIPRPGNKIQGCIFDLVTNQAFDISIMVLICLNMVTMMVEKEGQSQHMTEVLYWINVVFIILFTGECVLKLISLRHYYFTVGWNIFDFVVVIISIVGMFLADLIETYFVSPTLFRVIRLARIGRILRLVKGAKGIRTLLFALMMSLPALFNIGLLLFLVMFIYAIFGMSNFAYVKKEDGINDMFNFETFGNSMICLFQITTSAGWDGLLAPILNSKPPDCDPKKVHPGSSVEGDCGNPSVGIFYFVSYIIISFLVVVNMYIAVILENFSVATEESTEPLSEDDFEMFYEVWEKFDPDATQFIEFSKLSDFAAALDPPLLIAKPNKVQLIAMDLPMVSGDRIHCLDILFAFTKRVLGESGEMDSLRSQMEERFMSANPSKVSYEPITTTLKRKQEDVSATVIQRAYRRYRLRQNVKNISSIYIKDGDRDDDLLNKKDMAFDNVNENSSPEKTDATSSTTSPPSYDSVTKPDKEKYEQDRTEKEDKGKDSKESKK
# [3] = target: Sodium channel protein type 1 subunit alpha (Homo sapiens, UniProt P35498); experiment: Inhibition of full length human Nav1.1 channel expressed in HEK cells co-expressing human sodium channel subunit beta1 at holding potential -40 mV by automated voltage clamp analysis; assay type: cell-based, HEK293
# [4] = target: Sodium channel protein type 2 subunit alpha (Homo sapiens, UniProt Q99250); experiment: Inhibition of full length human Nav1.2 channel expressed in HEK cells co-expressing human sodium channel subunit beta1 at holding potential -35 mV by automated voltage clamp analysis; assay type: cell-based, HEK293
# [5] = target: Sodium channel protein type 8 subunit alpha (Homo sapiens, UniProt Q9UQD0); experiment: Inhibition of full length human Nav1.6 channel expressed in HEK cells co-expressing human sodium channel subunit beta1 at holding potential -35 mV by automated voltage clamp analysis; assay type: cell-based, HEK293
# [6] = target: Sodium channel protein type 9 subunit alpha (Mus musculus, UniProt Q62205); experiment: Inhibition of Nav1.7 channel in mouse CAD cells by whole-cell patch clamp assay; assay type: cell-based
# [7] = target: Sodium channel protein type 9 subunit alpha (Rattus norvegicus, UniProt O08562); experiment: Inhibition of rat Nav1.7 channel by automated voltage clamp analysis
# Cytochrome P450 2C9 = Cytochrome P450 2C9 (Homo sapiens, UniProt P11712); experiment: Inhibition of CYP2C9 in human liver microsomes using warfarin as substrate after 30 mins by LC/MS/MS analysis; assay type: ADME
# Cytochrome P450 3A4 = Cytochrome P450 3A4 (Homo sapiens, UniProt P08684); experiment: Inhibition of CYP3A4 in human liver microsomes using testosterone/midazolam as substrate after 30 mins by LC/MS/MS analysis; assay type: ADME
# Cytochrome P450 1A2 = target: T2, Cytochrome P450 1A2 (Homo sapiens, UniProt P05177); experiment: Inhibition of CYP1A2 in human liver microsomes using phenacetin as substrate after 30 mins by LC/MS/MS analysis; assay type: ADME
# T2 sequence (P05177 whole entry): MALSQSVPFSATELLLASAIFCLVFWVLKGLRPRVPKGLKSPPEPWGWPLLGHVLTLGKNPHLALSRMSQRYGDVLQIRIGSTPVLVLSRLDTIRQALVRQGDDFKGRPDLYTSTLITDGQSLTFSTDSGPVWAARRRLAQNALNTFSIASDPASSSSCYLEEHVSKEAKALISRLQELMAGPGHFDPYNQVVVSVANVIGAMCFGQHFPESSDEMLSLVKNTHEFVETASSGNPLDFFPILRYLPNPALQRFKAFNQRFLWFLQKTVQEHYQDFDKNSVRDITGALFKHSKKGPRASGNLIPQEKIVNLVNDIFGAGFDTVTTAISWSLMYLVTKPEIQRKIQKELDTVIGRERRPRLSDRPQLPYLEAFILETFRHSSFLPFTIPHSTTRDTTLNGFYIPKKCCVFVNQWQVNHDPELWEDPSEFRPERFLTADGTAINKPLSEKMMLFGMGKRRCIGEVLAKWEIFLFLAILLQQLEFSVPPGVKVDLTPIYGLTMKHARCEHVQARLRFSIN
# Cytochrome P450 2D6 = Cytochrome P450 2D6 (Homo sapiens, UniProt P10635); experiment: Inhibition of CYP2D6 in human liver microsomes using dextromethorphan as substrate after 30 mins by LC/MS/MS analysis; assay type: ADME
# [8] = Kinetic solubility of compound at pH 7.2; assay type: physicochemical; details: buffer, read-out: Kinetic_solubility
# [9] = Apparent permeability from apical to basolateral side in MDCK1 cells at 10 uM incubated for 2 hrs; assay type: ADME, cell-based, Canis lupus familiaris; details: dog, MDCK
# [10] = Efflux ratio of apparent permeability from apical to basolateral side to basolateral to apical side in MDCK1 cells expressing human MDR1 at 10 uM; assay type: ADME, cell-based, Canis lupus familiaris; details: dog, mdck1, 10 µM
# [11] = Plasma protein binding in rat at 10 uM incubated for 20 hrs by HPLC-MS/MS analysis; assay type: ADME, cell-free; details: read-out: PPB (converted)
# [12] = Cmax in Sprague-Dawley rat at 1 mg/kg, iv; assay type: ADME, organism-based; design: dose 1 mg/kg, route intravenous; details: in vivo
# [13] = AUC (0 to infinity) in Sprague-Dawley rat at 1 mg/kg, iv; assay type: ADME, organism-based; design: dose 1 mg/kg, time infinity, route intravenous; details: in vivo
# [14] = Half life in Sprague-Dawley rat at 1 mg/kg, iv; assay type: ADME, organism-based; details: in vivo
# [15] = Plasma clearance in Sprague-Dawley rat at 1 mg/kg, iv; assay type: ADME, organism-based
# [16] = Volume of distribution at steady state in Sprague-Dawley rat at 1 mg/kg, iv; assay type: ADME, organism-based; details: in vivo, read-out: Vdss
# [17] = Cmax in Sprague-Dawley rat at 20 mg/kg, ip; assay type: ADME, organism-based; design: dose 20 mg/kg, route intraperitoneal; details: in vivo
# [18] = Tmax in Sprague-Dawley rat at 20 mg/kg, ip; assay type: ADME, organism-based; details: in vivo
# [19] = AUC (0 to infinity) in Sprague-Dawley rat at 20 mg/kg, ip; assay type: ADME, organism-based; design: dose 20 mg/kg, route intraperitoneal, time infinity; details: in vivo
# [20] = Half life in Sprague-Dawley rat at 20 mg/kg, ip; assay type: ADME, organism-based; details: in vivo
# [21] = Ratio of drug uptake in brain to plasma in Sprague-Dawley rat at 20 mg/kg, ip by UHPLC analysis; assay type: ADME, organism-based; details: read-out: BPR
# [22] = target: T1, Sodium channel protein type 9 subunit alpha; experiment: Inhibition of full length human Nav1.7 channel expressed in HEK cells co-expressing human sodium channel subunit beta3 at -150 mV by manual voltage clamp analysis; assay type: cell-based, HEK293
# [23] = Dissociation constant, pKa of the compound at 100 uM by UV-spectrophotometric titration method; assay type: physicochemical
# Homo sapiens = organism: Homo sapiens; experiment: Selectivity ratio of IC50 for human Nav1.5 to IC50 for human Nav1.7
# [24] = target: Sodium channel protein type 4 subunit alpha (Homo sapiens, UniProt P35499); experiment: Inhibition of full length human Nav1.4 channel expressed in HEK cells co-expressing human sodium channel subunit beta1 by automated voltage clamp analysis; assay type: cell-based, HEK293
# [25] = target: Sodium channel protein type 10 subunit alpha (Homo sapiens, UniProt Q9Y5Y9); experiment: Inhibition of full length human Nav1.8 channel expressed in HEK cells co-expressing human sodium channel subunit beta3 at holding potential -20 mV by manual voltage clamp analysis; assay type: cell-based, HEK293
# [26] = target: Sodium channel protein type 3 subunit alpha (Homo sapiens, UniProt Q9NY46); experiment: Inhibition of full length human Nav1.3 channel expressed in HEK cells co-expressing human sodium channel subunit beta1 at holding potential -50 mV by automated voltage clamp analysis; assay type: cell-based, HEK293
smiles,measurement,setting,value
Nc1n[nH]c2ccc(-c3cc(Cl)ccc3Oc3cc(F)c(S(=O)(=O)Nc4ncns4)cc3F)cc12,IC50,[1],> 10000 nM
same,inhibition at 5 µM,hERG (KCNH2),< 11%
Nc1noc2ccc(-c3cc(Cl)ccc3Oc3cc(F)c(S(=O)(=O)Nc4ncns4)cc3F)cc12,IC50,[2],0.4 nM
same,IC50,[1],1380 nM
same,IC50,[3],3080 nM
same,IC50,[4],4.2 nM
same,IC50,[5],11 nM
same,IC50,[6],0.2 nM
same,IC50,[7],26 nM
same,inhibition at 5 µM,hERG (KCNH2),< 11%
same,IC50,Cytochrome P450 2C9,170 nM
same,IC50,Cytochrome P450 3A4,77 nM
same,IC50,Cytochrome P450 1A2,> 9000 nM
same,IC50,Cytochrome P450 2D6,> 9000 nM
same,solubility kinetic,[8],121 µM
same,"Papp A→B at 2 h, 10 µM",[9],2.1 ×10⁻⁶ cm/s
same,Ratio,[10],47
same,"fraction unbound at 20 h, 10 µM",[11],0.011
same,Cmax,[12],2.9 µM
same,AUC(0-inf),[13],0.18 µM·h
same,half-life,[14],7.8 min
same,clearance,[15],177 mL/min/kg
same,Vd,[16],1.4 L/kg
same,Cmax,[17],5.3 µM
same,Tmax,[18],3.6 min
same,AUC(0-inf),[19],13.5 µM·h
same,half-life,[20],132 min
same,Kp,[21],0.019
same,IC50,[22],0.4 nM
same,pKa at 100 µM,[23],3.2
O=S(=O)(Nc1ncns1)c1cc(F)c(Oc2ccc(Cl)cc2-c2ncc3cnccn23)cc1F,inhibition at 5 µM,hERG (KCNH2),< 11%
Nc1noc2ccc(-c3cc(Cl)ccc3Oc3cc(F)c(S(=O)(=O)NCc4ncccn4)cc3F)cc12,IC50,[2],5200 nM
Nc1nc2cc(-c3cc(Cl)ccc3Oc3cc(F)c(S(=O)(=O)Nc4ncns4)cc3F)ccc2[nH]1,IC50,[1],> 10000 nM
same,Ratio IC50,Homo sapiens,> 12000
same,IC50,[3],6380 nM
same,IC50,[4],0.2 nM
same,IC50,[24],> 10000 nM
same,IC50,[5],0.8 nM
same,IC50,[25],3850 nM
same,inhibition at 5 µM,hERG (KCNH2),< 11%
same,IC50,[26],9330 nM
